{"source": "patent US20230087140A1", "about": "“TREATMENT OF PAIN ASSOCIATED WITH CESAREAN SECTION SURGERY WITH SUSTAINED-RELEASE LIPOSOMAL ANESTHETIC COMPOSITIONS” (Pacira Pharmaceuticals, Inc., priority 2020, published 2023)", "key": {"[1]": {"system": "patients undergoing elective cesarean delivery", "test": "Randomized double-blind clinical trial, efficacy of TAP block after cesarean delivery (opioid consumption, VAS pain)", "format": "in vivo, human", "settings": "mITT"}, "[2]": {"system": "patients undergoing elective cesarean delivery", "test": "Clinical trial safety: treatment-emergent adverse events through day 14 (safety analysis set)"}, "[3]": {"settings": "cited from earlier work"}, "[4]": {"settings": "TEAEs occurring in >5% of patients in either group"}, "[5]": {"settings": "safety analysis set, through day 14"}, "[6]": {"settings": "treatment-relatedness determined by the investigator"}}, "note": "Structures can show the parent of a compound that is named as a salt."}
{"smiles": "CCCCN1CCCCC1C(=O)Nc1c(C)cccc1C", "note": "(centres unmarked) [BUPI HCl alone, bupivacaine hydrochloride]", "values": [{"measurement": "percentage of opioid-free patients at 24 hours", "setting": "[1]; 24 hours", "value": 93.7, "unit": "%"}, {"measurement": "percentage of opioid-free patients at 48 hours", "setting": "[1]; 48 hours", "value": 50.6, "unit": "%"}, {"measurement": "percentage of opioid-free patients at 72 hours", "setting": "[1]; 72 hours", "value": 48.6, "unit": "%"}, {"measurement": "percentage of opioid-spared patients at 72 hours", "setting": "[1]; 72 hours", "value": 24.7, "unit": "%"}, {"measurement": "median time to first opioid rescue", "setting": "[1]; median", "value": 41.1, "unit": "h"}, {"measurement": "LSM (SE) AUC0-72 of VAS pain intensity scores through 72 hours", "setting": "[1]; through 72 hours, hydrochloride", "value": "178.5 (19.78)"}, {"measurement": "TEAE: Back pain", "setting": "[2]; [4]", "value": "5 (5.6) number (percentage)"}, {"measurement": "TEAE: Constipation", "setting": "[2]; [4]", "value": "4 (4.5) number (percentage)"}, {"measurement": "TEAE: Dizziness", "setting": "[2]; [4]", "value": "5 (5.6) number (percentage)"}, {"measurement": "TEAE: Headache", "setting": "[2]; [4]", "value": "10 (11.2) number (percentage)"}, {"measurement": "TEAE: Nausea", "setting": "[2]; [4]", "value": "11 (12.4) number (percentage)"}, {"measurement": "TEAE: Pruritus", "setting": "[2]; [4]", "value": "28 (31.5) number (percentage)"}, {"measurement": "TEAE: Rash", "setting": "[2]; [4]", "value": "3 (3.4) number (percentage)"}, {"measurement": "TEAE: Vomiting", "setting": "[2]; [4]", "value": "6 (6.7) number (percentage)"}, {"measurement": "Any TEAE", "setting": "[2]; [5]", "value": "50 (56.2) number (percentage)"}, {"measurement": "Any treatment-related TEAE", "setting": "[2]; [5]", "value": "9 (10.1) number (percentage)"}, {"measurement": "Fatal TEAE", "setting": "[2]; [5]", "value": "0 (0.0) number (percentage)"}, {"measurement": "Serious TEAE", "setting": "[2]; [5]", "value": "3 (3.4) number (percentage)"}, {"measurement": "Serious TEAEs", "setting": "[2]; summary of results", "value": "~3", "unit": "%"}, {"measurement": "fatal TEAEs", "setting": "[2]; summary of results", "value": "no fatal TEAEs"}, {"measurement": "patients who experienced a TEAE", "setting": "[2]; summary of results", "value": 56.2, "unit": "%"}, {"measurement": "Treatment-related TEAE: Back pain", "setting": "[2]; [6]", "value": "1 (1.1) number (percentage)"}, {"measurement": "Treatment-related TEAE: Dizziness", "setting": "[2]; [6]", "value": "0 (0.0) number (percentage)"}, {"measurement": "Treatment-related TEAE: Dysuria", "setting": "[2]; [6]", "value": "1 (1.1) number (percentage)"}, {"measurement": "Treatment-related TEAE: Nausea", "setting": "[2]; [6]", "value": "0 (0.0) number (percentage)"}, {"measurement": "Treatment-related TEAE: Pruritus", "setting": "[2]; [6]", "value": "8 (9.0) number (percentage)"}, {"measurement": "Treatment-related TEAE: Vomiting", "setting": "[2]; [6]", "value": "0 (0.0) number (percentage)"}, {"measurement": "expected duration of action in spinal anesthesia", "setting": "[3]; 1.4 to 1.6 mL hyperbaric BUPI HCl 0.75%, spinal", "value": "~2", "unit": "h"}, {"measurement": "duration of analgesia", "setting": "[3]; standard local anesthetics, TAP block background", "value": "5 to 8", "unit": "h"}]}
